Laboratory results: patent publication US7867702B2, “Screen for novel protein inhibitors based upon engineered cell line containing an inducible overactivity gene and compensatory gene” (priority 2003, dated 2011)

B1: Domain I: N-terminal domain (amino acids 1 to 86) of wild type DnaA, biotin-tagged, expressed in SF58; poisons initiation complexes (protein, UniProt P03004 1-86, looked up, fragment)
chain: MSLSLWQQCLARLQDELPATEFSMWIRPLQAELSDNTLALYAPNRFVLDWVRDKYLNNINGLLTSFCGADAPQLRFEVGTKPVTQT
modifications: biotin tag
notes: N-terminal domain (amino acids 1 to 86) of wild type DnaA, biotin-tagged, expressed in SF58; poisons initiation complexes

Experiments:
SF58 = assay: Microtiter-format growth of SF58 with IPTG (assay validation, positive control); assay type: cell-based, E. coli; details: 0.31 mM IPTG and above vs 0 to 0.16 mM IPTG, 30° C., after 18 hours
Experimental: The first part of an assay transfer & validation procedure involves the reproduction of the results in microtiter format. […] All 48 replicate cultures of the same microtiter plate of FIG. 3 behaved similarly. […] In addition, after 18 h (6.4×10^4 s) the OD's of the induced cultures are well above controls.
A series of experiments were then performed to assess the signal as a function of the starting inoculum (i.e. the theoretical OD of the culture present in a microtiter well). The data (not shown) indicate that there is no significant difference in the SF58-IPTG growth curve if the inoculum is obtained by dilution of an overnight culture or of an actively growing 42° C.-culture. Consequently, the time for measuring the OD was set at 18 h, and the procedure used was to grow 5 μl of SF53 or SF58 in 30 ml glucose CAA medium (with […]) overnight at 42° C. until the OD600 was 1.2. The stock was diluted 1:100 in glucose CAA (without […]). 90 μl of this was dispensed into each well, with 10 μl of sample. […]
Following the procedure outlined above, a screening of 4240 microbial extracts was performed. Each 96-microtiter plate contained as controls four wells inoculated with SF53, four wells inoculated with SF58 and 8 wells inoculated with SF58 in the presence of 2.5 mM IPTG. […]

[1] = test system: strain SF58 (dnaA219, rnh::cam/pdnaA[1-86]-biotin); assay: Growth of strain SF58 at 30° C. with IPTG-induced Domain I of DnaA (flask cultures, OD450); assay type: cell-based, E. coli; details: for difference in OD450, induced vs uninduced culture: 10 parallel cultures
Experimental: The following experiments were performed to provide evidence that strain SF53 will survive when a drug has inactivated the DnaA protein. Such evidence can be obtained without a lead drug, by using production of the N-terminal domain (Domain I amino acids 1 to 86) of wild type DnaA. Domain I of DnaA is important for oligomerization and formation of proper initiation complexes. […] Strain SF53 was transformed with a plasmid carrying an IPTG-inducible gene encoding biotin-tagged Domain I (pBEX5BA-dnaA[1-86]-biotin), transformants checked, and the strain named SF58 (Table 1).
The growth of strain SF58 was tested at three different concentrations of IPTG. An overnight culture of strain SF58 grown at 42° C. was diluted 1:1000 in fresh ABB1 glucose CAA medium and split into five flasks. Culture nos. 1 to 4 were grown at 30° C. and culture no. 5 at 42° C. IPTG was added to culture no. 2, 3 and 4 at a concentration of 0.25, 0.5 and 1 mM, respectively, at the time of dilution. Growth curves were followed by measurement of OD450 for 8 hours. […] The OD450 was less than 0.03 at all time points.
The concentrations of Domain I present after 4 generations growth in the presence of the three different concentrations of IPTG, was assessed by Western blot. A ten-fold difference in OD450 between the culture grown without IPTG (culture no. 1) and the culture grown with 1 mM IPTG (culture no. 4) was obtained after about 10 hours. Thus, when performing a drug screen with the dnaA219rnh strain, a positive hit will be detected by a ten-fold difference in OD450 after about 10 hours in the presence of the drug.
To determine the robustness of the screen and also at which time, in a high throughput assay, it is optimal to measure the difference in OD450 we made the following measurements (FIG. 2). Essentially the same experiment as in FIG. 1 was performed, but OD450 was measured at only three time points, 20 h, 27 h and 48 h, in 10 different parallel cultures. A 20-40 fold difference was obtained after 20 h and after 27 h. After 48 h a background in the uninduced culture started to appear and the difference dropped to about 5 fold. Therefore, measurements of OD450 in high throughput screens should be performed after 10-30 hours of incubation.

| Molecule | OD405 of induced SF58 cultures compared with controls (SF58) | difference in OD450 between culture grown without IPTG and culture grown with IPTG ([1]; 1 mM IPTG, 30° C., after about 10 hours) | growth rate of SF58 cultures grown at 30° C. with IPTG ([1]; IPTG 0.25, 0.5 and 1 mM, 30° C., OD450 followed for 8 hours) | difference in OD450, induced vs uninduced culture ([1]; after 20 h, 30° C.) | difference in OD450, induced vs uninduced culture ([1]; after 27 h, 30° C.) | difference in OD450, induced vs uninduced culture ([1]; after 48 h, 30° C.) | growth of the strain at 30° C. ([1]; induction of Domain I by IPTG in SF58, 30° C.) |
| --- | --- | --- | --- | --- | --- | --- | --- |
| CC(C)S[C@@H]1O[C@H](CO)[C@H](O)[C@H](O)[C@H]1O [IPTG] | significantly higher than controls | ten-fold | increasing growth rates with increasing concentration of IPTG | 20-40 fold | 20-40 fold | about 5 fold |  |
| B1 |  |  |  |  |  |  | restored |
